In publication PMC12413083, “Secondary metabolites isolated from Fernandoa adenophylla (Wall. ex G.Don) steenis as multitarget inhibitors of cholinesterases for the treatment of Alzheimer’s Disease, followed by molecular docking studies” (PLOS One, 2025):
Read-outs that look alike come from different tables or passages of the source.

Tests used:
[1] = target: T1, equine serum butyrylcholinesterase (eqBuChE) (Equus caballus, UniProt P81908); assay: biochemical
T1 construct: equine serum (Equus caballus) BuChE (eqBuChE); purchased Sigma-Aldrich C3389; host or cells: equine serum
T1 sequence (P81908 whole entry): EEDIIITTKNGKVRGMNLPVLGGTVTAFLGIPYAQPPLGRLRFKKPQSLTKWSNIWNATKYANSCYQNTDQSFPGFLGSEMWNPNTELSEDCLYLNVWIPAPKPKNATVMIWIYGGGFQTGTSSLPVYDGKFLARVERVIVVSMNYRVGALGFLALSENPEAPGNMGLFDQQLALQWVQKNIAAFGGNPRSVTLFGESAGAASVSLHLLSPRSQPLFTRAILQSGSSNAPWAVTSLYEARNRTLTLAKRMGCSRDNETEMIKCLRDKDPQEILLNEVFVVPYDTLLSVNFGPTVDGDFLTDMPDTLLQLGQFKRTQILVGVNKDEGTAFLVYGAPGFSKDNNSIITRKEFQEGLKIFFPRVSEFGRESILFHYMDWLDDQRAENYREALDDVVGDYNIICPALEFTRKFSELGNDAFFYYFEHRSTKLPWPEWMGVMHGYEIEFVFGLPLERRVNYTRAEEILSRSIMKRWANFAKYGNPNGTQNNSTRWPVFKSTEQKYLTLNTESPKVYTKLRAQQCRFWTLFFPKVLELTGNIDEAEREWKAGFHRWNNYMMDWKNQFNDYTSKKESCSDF
Procedure: (§1) Enzymes from Electrophorus electricus (eeAChE) (Sigma-Aldrich, Cat. No. C3389) and equine serum (Equus caballus) BuChE (eqBuChE) […]. Stock solutions of the test compounds were prepared in potassium phosphate buffer (0.1 M, pH 8.0). The reaction mixture consisted of Ellman’s reagent (5,5′-dithiobis (2-nitrobenzoic acid), DTNB), enzyme (0.03 U/mL of eeAChE or eqBuChE), and the test compound. Pre-incubation was performed at 30°C for 10 minutes, followed by the addition of 1 mM acetylthiocholine iodide (ATCI) or butyrylthiocholine iodide (BTCI) as substrates. The reaction mixture was further incubated for 15 minutes. […] All assays were conducted in triplicate. IC50 values were calculated by nonlinear regression of compound concentration versus percentage inhibition.
(§2) All experiments were performed in triplicate, and the results are expressed as SEM. IC50 values were determined using nonlinear regression analysis (GraphPad Prism). All statistical analyses were performed using GraphPad Prism version 9.5.1 (GraphPad Software, San Diego, CA, USA).

[2] = target: T2, Electrophorus electricus acetylcholinesterase (eeAChE) (Electrophorus electricus, UniProt O42275); assay: biochemical; settings: for Selectivity Index (SI): SI = IC50 of BChE/IC50 of AChE
T2 construct: purchased Sigma-Aldrich C3389
T2 sequence (O42275 24-633): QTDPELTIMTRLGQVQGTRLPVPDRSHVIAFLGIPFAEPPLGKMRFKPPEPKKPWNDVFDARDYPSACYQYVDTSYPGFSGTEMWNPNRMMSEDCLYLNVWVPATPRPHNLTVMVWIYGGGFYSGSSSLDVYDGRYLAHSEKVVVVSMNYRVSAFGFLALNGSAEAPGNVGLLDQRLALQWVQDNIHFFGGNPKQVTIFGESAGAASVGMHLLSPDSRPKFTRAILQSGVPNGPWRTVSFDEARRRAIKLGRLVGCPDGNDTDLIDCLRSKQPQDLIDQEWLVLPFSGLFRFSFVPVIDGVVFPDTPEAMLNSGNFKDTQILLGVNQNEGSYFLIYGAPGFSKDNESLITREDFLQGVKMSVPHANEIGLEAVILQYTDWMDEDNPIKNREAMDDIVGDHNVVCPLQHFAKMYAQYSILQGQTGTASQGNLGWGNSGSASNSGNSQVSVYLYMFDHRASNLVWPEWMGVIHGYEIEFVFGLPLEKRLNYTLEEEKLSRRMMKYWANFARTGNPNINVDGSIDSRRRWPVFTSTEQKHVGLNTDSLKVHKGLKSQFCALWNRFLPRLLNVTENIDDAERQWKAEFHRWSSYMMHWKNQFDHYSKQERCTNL
Procedure: as §1, §2

[3] = Ellman's method, mean ± SEM, n = 3, read-out: IC50 (μM) ± SEM eqBuChE
[4] = Ellman's method, mean ± SEM, n = 3, read-out: IC50 (μM) ± SEM (eeAChE)

| Structure (SMILES) | IC50 [1, 3] [µM] | IC50 [2, 4] [µM] | Selectivity Index (SI) [2] | IC50 [1] [µM] | IC50 [2] [µM] |
| --- | --- | --- | --- | --- | --- |
| CC1(C)C=CC2=C(O1)C(=O)c1ccccc1C2=O [Dehydro-α-lapachone (4), Dehydro-α-lapachone] | 55.6 ± 1.41 | 2.64 ± 0.08 | 21.1 |  |  |
| CC(C)=CCC1=C(O)C(=O)c2ccccc2C1=O [Lapachol (1), Lapachol] |  |  | 13.6 | 68.3 ± 1.06 | 5.04 ± 0.24 |
| CC1(C)CCC2=C(O1)C(=O)c1ccccc1C2=O [α-Lapachone (2), α-Lapachone] | 39.1 ± 0.97 | 11 ± 0.97 | 3.6 |  |  |
| CC(C)=C(C)C1CC2(C)OC3=C(C(=O)c4ccccc4C3=O)C3C2C12C(=O)c1ccccc1C3(O)C2=O (stereo not drawn) [Peshawaraquinone (3), Peshawaraquinone] | 8.39 ± 0.14 | 0.9 ± 0.04 | 9.3 |  |  |
| COC(=O)C1(O)c2ccccc2C(=O)C1(O)CC=C(C)C (stereo not drawn) [Indanone derivative (5)] |  |  | 0.45 | 24.2 ± 1.04 | 53.2 ± 1.29 |
